Some results are limits rather than exact numbers.

Assay [1] relates to Kasumi-1. The assay can be described thus: CCK-8 tumor cell proliferation, Kasumi-1. Particulars: Table 13, designed based on BCR-ABL inhibitors; 72 h. The class given is cell-based, Human. The method in brief: (§1)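 Viability determined colorimetrically with CCK-8 following compound treatment. Dosing began 24 h post-plating using ten 5-fold dilutions capped at 10 μM; growth-inhibition curves yielded IC50.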

The subject of assay [2] is Mino. The assay can be described thus: CCK-8 tumor cell proliferation, Mino. The class given is cell-based, Human. Particulars: Table 13, designed based on BCR-ABL inhibitors; 72 h. The method in brief: as §1
Assay [3] relates to K562. The assay can be described thus: CCK-8 tumor cell proliferation, K562. Also on record: species or system Human. Particulars: Table 13, designed based on BCR-ABL inhibitors; 72 h. As to the method: (§2) The tumor cells used herein were cultured in a cell culture medium listed in table 4 at 37° C. in an incubator with 5% CO2. Prior to experimentation, all cells used were correctly identified by STR profiling, and tested negative for mycoplasma through routine screenings.
(§3) IC50 values of the compounds of the present disclosure (including the compounds in Tables 1 and 3, and compounds of examples) were measured using the Meilun Cell Counting Kit-8 kit from Dalian Meilun Biotech Co., Ltd. Assay details are as follows: tumor cells were seeded in a 96-well plate at a density listed in Table 5. After 24 h, 100 μL of the inoculated cells were treated with 0.5 μL of the compounds of the present disclosure (including the compounds in Tables 1 and 3, and compounds of examples) at 10 different successively decreasing concentrations (starting at the highest concentration of 10 μM; 5-fold serial dilutions). After the cells were treated with the compounds of the present disclosure for a period of time, the cell viability detection reagent was added to the culture medium for cell viability assessment according to the instructions provided with the CCK-8 kit. […] The growth inhibition of the compounds of the present disclosure on cells was plotted by Prism Graphpad software, and the IC50 values of the compounds of the present disclosure were calculated therefrom.

The subject of assay [4] is CCRF-CEM. The assay can be described thus: CCK-8 tumor cell proliferation, CCRF-CEM. It counts as cell-based, Human. Also on record: IC50 for inhibiting the proliferation of tumor cells, CCRF-CEM: scale not given here. Particulars: 96 h. The method in brief:
as §1

Assay [5] has as its system Ramos. The assay can be described thus: CCK-8 tumor cell proliferation, Ramos. Particulars: Homo sapiens, Table 9, designed based on SHP2 inhibitors, 72 h, read-out: IC50 for inhibiting the proliferation of tumor cells, Ramos. As to the method: as §2, §3
The subject of assay [6] is Daudi. The experiment in a line: CCK-8 tumor cell proliferation, Daudi. Particulars: Table 13, designed based on BCR-ABL inhibitors; 96 h. Also on record: species or system Human. As to the method: as §2, §3
In assay [7] the test system is HCC827. The experiment in a line: CCK-8 tumor cell proliferation, HCC827. The class given is cell-based, Human. Particulars: Table 11, designed based on EGFR inhibitors; 96 h.
The subject of assay [8] is PC-9. The assay can be described thus: CCK-8 tumor cell proliferation, PC-9. Conditions: Table 11, designed based on EGFR inhibitors; 96 h. The class given is cell-based, Human.
Assay [9] deals with NCI-H358. The assay can be described thus: CCK-8 tumor cell proliferation, NCI-H358. Also on record: species or system Human. Particulars: Table 11, designed based on EGFR inhibitors; 96 h. How it is done:
The tumor cells used herein were cultured in a cell culture medium listed in table 4 at 37° C. in an incubator with 5% CO2.
as §3, with “After” for “IC50 values of the compounds of the present disclosure (including the compounds in Tables 1 and 3, and compounds of examples) were measured using the Meilun Cell Counting Kit-8 kit from Dalian Meilun Biotech Co., Ltd. Assay details are as follows: tumor cells were seeded in a 96-well plate at a density listed in Table 5. After”

Assay [10] relates to SU-DHL-6. The experiment in a line: CCK-8 tumor cell proliferation, SU-DHL-6. The class given is cell-based, Human. Conditions: Table 14, designed based on CDK4/6 inhibitors; 72 h. How it is done:
as §2, §3

Assay [11] has as its system HGC-27. The experiment in a line: CCK-8 tumor cell proliferation, HGC-27. The class given is cell-based, Human. Particulars: Table 14, designed based on CDK4/6 inhibitors; 96 h. As to the method:
as §2, §3

Assay [12] has as its system SR. The experiment in a line: CCK-8 tumor cell proliferation, SR. It counts as cell-based, Human. Particulars: Table 14, designed based on CDK4/6 inhibitors; 72 h. The method in brief:
as §1

The test system of assay [13] is SK-OV-3. The assay can be described thus: CCK-8 tumor cell proliferation, SK-OV-3. Particulars: Table 14, designed based on CDK4/6 inhibitors. As to the method: as §3

`Cc1nc(Nc2ncc(C(=O)Nc3c(C)cccc3Cl)s2)cc(N2CCN(Cc3ccc4c(c3)CN(C3CCC(=O)NC3=O)C4=O)CC2)n1` (stereo not drawn) [GT-03215, N-(2-chloro-6-methylphenyl)-2-((6-(4-((2-(2,6-dioxopiperidin-3-yl)-1-oxoisoindolin-5-yl)methyl)piperazin-1-yl)-2-methylpyrimidin-4-yl)amino)thiazole-5-carboxamide]: the “IC50 for inhibiting the proliferation of tumor cells, Kasumi-1” value in [1] is “A+”. Further, the “IC50 for inhibiting the proliferation of tumor cells, Mino” value in assay [2] is listed as “A+”. The “IC50 for inhibiting the proliferation of tumor cells, K562” value in assay [3] is given as “A+”.

Turning to `Cc1ccc(C(=O)Nc2ccc(N3CCN(Cc4ccc5c(c4)CN(C4CCC(=O)NC4=O)C5=O)CC3)c(C(F)(F)F)c2)cc1C#Cc1cnc2cccnn12` (stereo not drawn) [GT-03805, N-(4-(4-((2-(2,6-dioxopiperidin-3-yl)-1-oxoisoindolin-5-yl)methyl)piperazin-1-yl)-3-(trifluoromethyl)phenyl)-3-(imidazo[1,2-b]pyridazin-3-ylethynyl)-4-methylbenzamide], in [4] (Table 13, designed based on BCR-ABL inhibitors), the “IC50 for inhibiting the proliferation of tumor cells, CCRF-CEM” value is “A+”. The “IC50 for inhibiting the proliferation of tumor cells, K562” value in [3] is on record as “A+”.

Turning to `C[C@@H]1OCC2(CCN(c3cnc(Sc4ccnc(N)c4Cl)c(N)n3)CC2)[C@@H]1N` [GT-03335], in assay [5], the IC50 is over 10 µM.

With `Cc1nc(Nc2ncc(C(=O)Nc3c(C)cccc3Cl)s2)cc(N2CCC(N(C)Cc3ccc4c(c3)CN(C3CCC(=O)NC3=O)C4=O)CC2)n1` (stereo not drawn) [GT-03545, N-(2-chloro-6-methylphenyl)-2-((6-(4-(((2-(2,6-dioxopiperidin-3-yl)-1-oxoisoindolin-5-yl)methyl)(methyl)amino)piperidin-1-yl)-2-methylpyrimidin-4-yl)amino)thiazole-5-carboxamide], in assay [6], the “IC50 for inhibiting the proliferation of tumor cells, Daudi” value is on record as “A+”. Also, the “IC50 for inhibiting the proliferation of tumor cells, Mino” value in [2] is reported as “A+”.

For `COc1cc2ncnc(Nc3ccc(F)c(Cl)c3)c2cc1NC(=O)/C=C/CN1CCN(Cc2ccc3c(c2)CN(C2CCC(=O)NC2=O)C3=O)CC1` (stereo not drawn) [GT-03265, (E)-N-(4-((3-chloro-4-fluorophenyl)amino)-7-methoxyquinazolin-6-yl)-4-(4-((2-(2,6-dioxopiperidin-3-yl)-1-oxoisoindolin-5-yl)methyl)piperazin-1-yl)but-2-enamide], the “IC50 for inhibiting the proliferation of tumor cells, HCC827” value in [7] was “A+”. Besides, the “IC50 for inhibiting the proliferation of tumor cells, PC-9” value in assay [8] is reported as “A+”. Further, the “IC50 for inhibiting the proliferation of tumor cells, NCI-H358” value in assay [9] was “A+”.

As for `Cc1nc2c(F)cc(-c3nc(Nc4ccc(N5CCC(N6CCN(Cc7ccc8c(c7F)CN(C7CCC(=O)NC7=O)C8=O)CC6)CC5)cn4)ncc3F)cc2n1C(C)C` (stereo not drawn) [GT-03900, 3-(4-fluoro-5-((4-(1-(6-((5-fluoro-4-(4-fluoro-1-isopropyl-2-methyl-1H-benzo[d]imidazol-6-yl)pyrimidin-2-yl)amino)pyridin-3-yl)piperidin-4-yl)piperazin-1-yl)methyl)-1-oxoisoindolin-2-yl)piperidine-2,6-dione], the “IC50 for inhibiting the proliferation of tumor cells, SU-DHL-6” value in assay [10] is given as “A+”. Also, the “IC50 for inhibiting the proliferation of tumor cells, HGC-27” value in [11] is “A+”. Besides, the “IC50 for inhibiting the proliferation of tumor cells, SR” value in [12] was “A+”. Also, the “IC50 for inhibiting the proliferation of tumor cells, SK-OV-3” value in assay [13] is recorded as “A+”.

As for `Cc1nc2c(F)cc(-c3nc(Nc4ccc(N5CCC(N6CCN(Cc7cc8c(cc7F)C(=O)N(C7CCC(=O)NC7=O)C8)CC6)CC5)cn4)ncc3F)cc2n1C(C)C` (stereo not drawn) [GT-03901, 3-(6-fluoro-5-((4-(1-(6-((5-fluoro-4-(4-fluoro-1-isopropyl-2-methyl-1H-benzo[d]imidazol-6-yl)pyrimidin-2-yl)amino)pyridin-3-yl)piperidin-4-yl)piperazin-1-yl)methyl)-1-oxoisoindolin-2-yl)piperidine-2,6-dione], in assay [10], the “IC50 for inhibiting the proliferation of tumor cells, SU-DHL-6” value is “A+”. Besides, the “IC50 for inhibiting the proliferation of tumor cells, HGC-27” value in [11] is “A+”. Besides, in assay [12], the “IC50 for inhibiting the proliferation of tumor cells, SR” value is “A+”. Besides, the “IC50 for inhibiting the proliferation of tumor cells, SK-OV-3” value in assay [13] is on record as “A+”.

For `C=CC(=O)Nc1cc2c(Nc3ccc(F)c(Cl)c3)ncnc2cc1OCCCN1CCN(Cc2ccc3c(c2)CN(C2CCC(=O)NC2=O)C3=O)CC1` (stereo not drawn) [GT-03411, N-(4-((3-chloro-4-fluorophenyl)amino)-7-(3-(4-((2-(2,6-dioxopiperidin-3-yl)-1-oxoisoindolin-5-yl)methyl)piperazin-1-yl)propoxy)quinazolin-6-yl)acrylamide], in assay [8], the “IC50 for inhibiting the proliferation of tumor cells, PC-9” value is listed as “A+”. In addition, the “IC50 for inhibiting the proliferation of tumor cells, NCI-H358” value in assay [9] was “A+”.

`Cc1nc2c(F)cc(-c3nc(Nc4ccc(N5CCC(N6CCN(Cc7cccc8c7CN(C7CCC(=O)NC7=O)C8=O)CC6)CC5)cn4)ncc3F)cc2n1C(C)C` (stereo not drawn) [GT-03903, 3-(4-((4-(1-(6-((5-fluoro-4-(4-fluoro-1-isopropyl-2-methyl-1H-benzo[d]imidazol-6-yl)pyrimidin-2-yl)amino)pyridin-3-yl)piperidin-4-yl)piperazin-1-yl)methyl)-1-oxoisoindolin-2-yl)piperidine-2,6-dione]: the “IC50 for inhibiting the proliferation of tumor cells, SU-DHL-6” value in assay [10] is given as “A+”. Also, in [4] (Table 14, designed based on CDK4/6 inhibitors), the “IC50 for inhibiting the proliferation of tumor cells, CCRF-CEM” value is on record as “A+”. For the same compound, in [11], the “IC50 for inhibiting the proliferation of tumor cells, HGC-27” value is on record as “A+”. The “IC50 for inhibiting the proliferation of tumor cells, SR” value in assay [12] is listed as “A+”. Moreover, in assay [13], the “IC50 for inhibiting the proliferation of tumor cells, SK-OV-3” value is listed as “A+”.

Take `CC1(N)CCN(c2cnc(-c3cccc(Cl)c3Cl)c(N)n2)CC1` [GT-03334]: the IC50 in assay [5] is over 10 µM.

`Cc1ccc(NC(=O)c2ccc(CN3CCN(Cc4ccc5c(c4)CN(C4CCC(=O)NC4=O)C5=O)CC3)cc2)cc1Nc1nccc(-c2cccnc2)n1` (stereo not drawn) [GT-02969, 4-((4-((2-(2,6-dioxopiperidin-3-yl)-1-oxoisoindolin-5-yl)methyl)piperazin-1-yl)methyl)-N-(4-methyl-3-((4-(pyridin-3-yl)pyrimidin-2-yl)amino)phenyl)benzamide]: the “IC50 for inhibiting the proliferation of tumor cells, Daudi” value in assay [6] is listed as “A+”.

With `CC1(N)CCN(c2cnc3c(-c4cccc(Cl)c4Cl)n[nH]c3n2)CC1` [GT-03336], the IC50 in assay [5] was over 10 µM.

With `Cc1ccc(NC(=O)c2ccc(CNCc3ccc4c(c3)CN(C3CCC(=O)NC3=O)C4=O)cc2)cc1Nc1nccc(-c2cccnc2)n1` (stereo not drawn) [GT-03377, 4-((((2-(2,6-dioxopiperidin-3-yl)-1-oxoisoindolin-5-yl)methyl)amino)methyl)-N-(4-methyl-3-((4-(pyridin-3-yl)pyrimidin-2-yl)amino)phenyl)benzamide], the “IC50 for inhibiting the proliferation of tumor cells, Daudi” value in [6] is on record as “A+”. Also, in assay [1], the “IC50 for inhibiting the proliferation of tumor cells, Kasumi-1” value is listed as “A+”. Besides, the “IC50 for inhibiting the proliferation of tumor cells, Mino” value in assay [2] is “A+”.

Take `Cc1nc2c(F)cc(-c3nc(Nc4ccc(N5CCC(N6CCN(Cc7cc(F)c8c(c7)CN(C7CCC(=O)NC7=O)C8=O)CC6)CC5)cn4)ncc3F)cc2n1C(C)C` (stereo not drawn) [GT-03902, 3-(7-fluoro-5-((4-(1-(6-((5-fluoro-4-(4-fluoro-1-isopropyl-2-methyl-1H-benzo[d]imidazol-6-yl)pyrimidin-2-yl)amino)pyridin-3-yl)piperidin-4-yl)piperazin-1-yl)methyl)-1-oxoisoindolin-2-yl)piperidine-2,6-dione]: the “IC50 for inhibiting the proliferation of tumor cells, SU-DHL-6” value in assay [10] is listed as “A+”. Further, the “IC50 for inhibiting the proliferation of tumor cells, HGC-27” value in assay [11] is listed as “A+”. The “IC50 for inhibiting the proliferation of tumor cells, SR” value in assay [12] was “A+”. Also, the “IC50 for inhibiting the proliferation of tumor cells, SK-OV-3” value in [13] is listed as “A+”.
